The text below walks through data of patent publication US9765074B2, “Inhibitors of the renal outer medullary potassium channel” (Merck Sharp & Dohme Corp., priority 2013, dated 2017).

Molecules are shown by their SMILES.

The assay deals with T1, hROMK (hKir1.1) (Homo sapiens, UniProt P48048).
T1 construct: expressed in transfected cells
T1 sequence (P48048 1-391): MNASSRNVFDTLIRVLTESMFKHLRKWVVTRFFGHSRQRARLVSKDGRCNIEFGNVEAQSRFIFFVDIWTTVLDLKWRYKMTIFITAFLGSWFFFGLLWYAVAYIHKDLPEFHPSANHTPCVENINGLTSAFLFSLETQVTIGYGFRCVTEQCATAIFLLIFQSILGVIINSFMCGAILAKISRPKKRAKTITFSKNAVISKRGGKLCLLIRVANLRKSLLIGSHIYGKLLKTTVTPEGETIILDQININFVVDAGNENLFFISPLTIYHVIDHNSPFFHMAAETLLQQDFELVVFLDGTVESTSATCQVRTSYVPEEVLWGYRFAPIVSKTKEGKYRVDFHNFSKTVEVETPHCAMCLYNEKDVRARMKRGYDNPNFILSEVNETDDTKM
Description: Thallium Flux Assay (ROMK channel functional thallium flux, FLIPR-Tetra). Type of assay: cell-based. Particulars: HEK293 cells stably expressing hROMK (hKir1.1); 30 min compound incubation. The protocol: The following Thallium Flux Assay was performed on each of the final product compounds in the Examples.
Cell Culture Conditions—HEK293 cells stably expressing hROMK (hKir1.1) were grown at 37° C. in a 10% CO2 humidified incubator in complete growth media: Dulbecco's Modified Eagle Medium supplemented with non-essential amino acids, Penicillin/Streptomycin/Glutamine, G418 and FBS. At >80% confluency, aspirate the media from the flask and rinse with 10 mL Calcium/Magnesium-free PBS. Add 5 mL of 1× trypsin (prepared in Ca/Mg Free PBS) to T-225 flask and return flask to 37° C./CO2 incubator for 2-3 minutes. To dislodge the cell, gently bang the side of the flask with your hand. Triturate the cells completely and then transfer the cells to 25 mL complete media. Centrifuge at 1,500 rpm for 6 min followed by resuspension in complete growth media and determine cell concentration. For typical re-seeding, 4E6 cells/T-225 flask will attain >80% confluency in 4 days. Under ideal growth conditions and appropriate tissue culture practices, this cell line is stable for 40-45 passages. FluxOR Kit Components (Invitrogen F10017) • FluxOR™ Reagent (Component A) • FluxOR™ Assay Buffer (Component B)—10× Concentrate • PowerLoad™ Concentrate (Component C)—100× Concentrate • Probenecid (Component D)—Lyophilized sample is kept at −20° C. Water soluble, 100× after solubilization in 1 mL water. Store at 4° C. • FluxOR™ Chloride-free Buffer (Component E)—5× Concentrate • Potassium sulfate (K2SO4) Concentrate (Component F)—125 mM in water. Store at 4° C. • Thallium sulfate (Tl2SO4) Concentrate (Component G)—50 mM in water. Store at 4° C. • DMSO (dimethyl sulfoxide, Component H)—1 mL (100%) Reagent Preparation: FluxOR Working Solutions • 1000× FluxOR™ Reagent: Reconstitute a vial of component A in 100 μl DMSO; Mix well; Store 10 μl aliquots at −20° C. • 1× FluxOR™ Assay Buffer: Dilute Component B 10-fold with water; Adjust pH to 7.4 with Hepes/NaOH; Filter and store at 4° C. • Probenecid/Assay Buffer: 100 mL of 1× FluxOR™ Assay Buffer; 1 mL of reconstituted component D; Store at 4° C. • Loading Buffer (per microplate): 10 μl 1000× FluxOR™ Reagent; 100 μl component C; 10 mL Probenecid/Assay Buffer • Compound Buffer (per microplate): 20 mL Probenecid/Assay Buffer; 0.3 mM ouabain (10 mM ouabain in water can be stored in amber bottle/aluminum foil at room temperature); Test compound • 1× FluxOR™ Chloride-Free Buffer: Prepare 1× working solution in water. Can be stored at room temperature • Stimulant Buffer (prepared at 5× final concentration in 1× FluxOR™ Chloride-Free Buffer): 7.5 mM Thallium sulfate and 0.75 mM Potassium sulfate (to give a final assay concentration of 3 mM Thallium/0.3 mM Potassium). Store at 4° C. when not in use. If kept sterile, this solution is good for months. Assay Protocol—The ROMK channel functional thallium flux assay is performed in 384 wells, using the FLIPR-Tetra instrument. HEK-hKir1.1 cells are seeded in Poly-D-Lysine microplates and kept in a 37° C.-10% CO2 incubator overnight. On the day of the experiment, the growth media is replaced with the FluxOR™ reagent loading buffer and incubated, protected from light, at ambient temperature (23-25° C.) for 90 min. The loading buffer is replaced with assay buffer±test compound followed by 30 min incubation at ambient temperature, where the Thallium/Potassium stimulant is added to the microplate. Step Protocol • 1. Seed HEK-hKir1.1 cells (50 μl at 20,000 cells/well) in 384-well PDL coated Microplates • 2. Allow cells to adhere overnight in humidified 37° C./10% CO2 incubator • 3. Completely remove cell growth media from microplate and replace with 25 μl loading buffer • 4. Incubate Microplate at room temperature, protected form light, for 90 min • 5. Remove loading buffer and replace with 25 μl 1× Assay Buffer±test compound. • 6. Incubate microplate at room temperature, protected from light, for 30 min • 7. At FLIPR-Tetra 384: Add stimulant (Thallium/Potassium) solution to microplate and monitor fluorescence. […]
As for `CC1=C(N2CCC3(CC4CCC(C3)N4C[C@H](O)c3cnc(-n4cnnn4)nc3)C2=O)COC1=O` (stereo partly drawn) [Example 45, (1R,5R)-8-{(2R)-2-hydroxy-2-[2-(1H-tetrazol-1-yl)pyrimidin-5-yl]ethyl}-1′-(4-methyl-5-oxo-2,5-dihydrofuran-3-yl)-2′-oxospiro[8-azoniabicyclo[3.2.1]octane-3,3′-pyrrolidine]], it took 30 nM to reach half-maximal inhibition (IC50).

Turning to `CC1=C(N2CCC3(CCN(C(CO)Cc4ccc(-n5cnnn5)nc4)CC3)C2=O)COC1=O` (single isomer, unassigned) [Example 295], it took 20 nM to reach half-maximal inhibition (IC50).

Take `CCc1nc(-n2cnnn2)cnc1CCN1CCC2(CC1)C[C@H](C)N(C1=CC(=O)OC1)C2=O` [Example 271, (S)-8-(2-(3-ethyl-5-(1H-tetrazol-1-yl)pyrazin-2-yl)ethyl)-3-methyl-2-(5-oxo-2,5-dihydrofuran-3-yl)-2,8-diazaspiro[4.5]decan-1-one]: it took 5 nM to reach half-maximal inhibition (IC50).

Turning to `CC1=C(N2CCC3(CCN(C[C@@H](O)c4ccc(-n5cnnn5)cn4)CC3)C2=O)COC1=O` [Example 23, 8-{(2R)-2-hydroxy-2-[5-(1H-tetrazol-1-yl)pyridin-2-yl]ethyl}-2-(4-methyl-5-oxo-2,5-dihydrofuran-3-yl)-1-oxo-2-aza-8-azoniaspiro[4.5]decane], the IC50 (in general, the point on the concentration scale where inhibition reaches its midpoint) stood at 20 nM.

Regarding `Cc1nc(-n2cnnn2)cnc1C(O)CN1CCC2(CC1)C[C@H](C)N(C1=CC(=O)OC1)C2=O` (mixture of isomers) [Example 169, (3S)-8-{2-hydroxy-2-[3-methyl-5-(1H-tetrazol-1-yl)pyrazin-2-yl]ethyl}-3-methyl-2-(5-oxo-2,5-dihydrofuran-3-yl)-2,8-diazaspiro[4.5]decan-1-one], the midpoint of inhibition, the IC50, lay at 10 nM.

`CC1=C(N2CCC3(CCN(C(C)(C)C(O)c4ccc(-n5cnnn5)cn4)CC3)C2=O)COC1=O` (single isomer, unassigned) [Example 300] registered a concentration for half-maximal inhibition (IC50) of 20 nM. This IC50 is about 2-fold higher than that of the molecule before.

Molecule `Cc1nc(-n2cnnn2)ccc1[C@@H](O)CN1CCC2(CC1)CCN(C1=C(C3CC3)C(=O)OC1)C2=O` [Example 60, 2-(4-cyclopropyl-5-oxo-2,5-dihydrofuran-3-yl)-8-{(2R)-2-hydroxy-2-[2-methyl-6-(1H-tetrazol-1-yl)pyridin-3-yl]ethyl}-1-oxo-2-aza-8-azoniaspiro[4.5]decane] gave an IC50 of 40 nM.

In turn, `CC1=C(N2C(=O)C3(CCN(C[C@H](O)c4ccc(-n5cnnn5)nc4)CC3)CC2C)COC1=O` (single isomer, unassigned) [Example 65] gave an IC50 of 10 nM.

The molecule `CC1=C(N2CCC3(CC4CCC(C3)N4C[C@@H](O)c3nnc(-n4cnnn4)c(C)c3C)C2=O)COC1=O` (stereo partly drawn) [Example 51, (1R,5R)-8-{(2R)-2-[4,5-dimethyl-6-(1H-tetrazol-1-yl)pyridazin-3-yl]-2-hydroxyethyl}-1′-(4-methyl-5-oxo-2,5-dihydrofuran-3-yl)-2′-oxospiro[8-azoniabicyclo[3.2.1]octane-3,3′-pyrrolidine]] registered a half-inhibitory concentration (IC50) of 30 nM.

As for `O=C1C=C(N2C(=O)C3(CCN(C[C@H](O)c4ccc(-n5cnnn5)cn4)CC3)CC2C2CC2)CO1` (mixture of isomers) [Example 223, 3-cyclopropyl-8-{(2S)-2-hydroxy-2-[5-(1H-tetrazol-1-yl)pyridin-2-yl]ethyl}-2-(5-oxo-2,5-dihydrofuran-3-yl)-2,8-diazaspiro[4.5]decan-1-one], half-maximal inhibition (IC50) was put at 50 nM.

In turn, `COC1CN(C[C@H](O)c2ccc(-n3cnnn3)nc2)CCC12CCN(C1=C(C)C(=O)OC1)C2=O` (single isomer, unassigned) [Example 170] showed an IC50 of 40 nM. The IC50 values of the last two molecules are within 1.5-fold of each other.

Turning to `O=C1C=C(N2CCC3(CCN(C[C@@H](O)c4ccc(-n5cnnn5)cc4F)CC3)C2=O)CO1` [Example 14, 8-{(2S)-2-[2-fluoro-4-(1H-tetrazol-1-yl)phenyl]-2-hydroxyethyl}-1-oxo-2-(5-oxo-2,5-dihydrofuran-3-yl)-2-aza-8-azoniaspiro[4.5]decane], the 50% inhibitory concentration (IC50) is 20 nM.

With `CCC1CC2(CCN(C[C@H](O)c3ccc(-n4cnnn4)nc3)CC2)C(=O)N1C1=CC(=O)OC1` (mixture of isomers) [Example 219, 3-ethyl-8-{(2R)-2-hydroxy-2-[6-(1H-tetrazol-1-yl)pyridin-3-yl]ethyl}-2-(5-oxo-2,5-dihydrofuran-3-yl)-2,8-diazaspiro[4.5]decan-1-one], the IC50 came out at 10 nM.

For the molecule `CC1=C(N2CCC3(CCN(C[C@H](O)c4ccc(-n5cnnn5)cn4)CC3)C2=O)COC1=O` [Example 22, 8-{(2S)-2-hydroxy-2-[5-(1H-tetrazol-1-yl)pyridin-2-yl]ethyl}-2-(4-methyl-5-oxo-2,5-dihydrofuran-3-yl)-1-oxo-2-aza-8-azoniaspiro[4.5]decane], the IC50 came out at 10 nM.

Regarding `CC1=C(N2CCC3(CCN(C[C@@H](O)c4cncc(-n5cnnn5)c4)CC3)C2=O)COC1=O` [Example 132, 8-{(2S)-2-hydroxy-2-[5-(1H-tetrazol-1-yl)pyridin-3-yl]ethyl}-2-(4-methyl-5-oxo-2,5-dihydrofuran-3-yl)-1-oxo-2-aza-8-azoniaspiro[4.5]decane], the IC50 stood at 640 nM.

`CC1=C(N2CCC3(CCN(C[C@@H](F)c4cnc(-n5cnnn5)cn4)CC3)C2=O)COC1=O` [Example 277, 8-{(2R)-2-fluoro-2-[5-(1H-tetrazol-1-yl)pyrazin-2-yl]ethyl}-2-(4-methyl-5-oxo-2,5-dihydrofuran-3-yl)-1-oxo-2-aza-8-azoniaspiro[4.5]decane] returned an IC50 of 80 nM.

`CC1=C(N2CCC3(CCN(C[C@H](O)c4ccc(-n5cnnn5)nc4)CC3)C2=O)COC1=O` [Example 18, 8-{(2R)-2-hydroxy-2-[6-(1H-tetrazol-1-yl)pyridin-3-yl]ethyl}-2-(4-methyl-5-oxo-2,5-dihydrofuran-3-yl)-1-oxo-2-aza-8-azoniaspiro[4.5]decane]: the IC50 worked out at 10 nM. Against the preceding molecule, the IC50 is about 8-fold lower.

Molecule `CC1=C(N2CC[C@@]3(CCN(C[C@H](O)c4cnc(-n5cnnn5)cn4)CC3F)C2=O)COC1=O` (mixture of isomers) [Example 225, 6-fluoro-8-{(2S)-2-hydroxy-2-[5-(1H-tetrazol-1-yl)pyrazin-2-yl]ethyl}-2-(4-methyl-5-oxo-2,5-dihydrofuran-3-yl)-1-oxo-2-aza-8-azoniaspiro[4.5]decane] yielded an IC50 of 150 nM.

`C[C@H]1CC2(CCN(C[C@H](O)c3ccc(-n4cnnn4)nc3)CC2)C(=O)N1C1=CC(=O)OC1` [Example 81, (3S)-8-{(2R)-2-hydroxy-2-[6-(1H-tetrazol-1-yl)pyridin-3-yl]ethyl}-3-methyl-1-oxo-2-(5-oxo-2,5-dihydrofuran-3-yl)-2-aza-8-azoniaspiro[4.5]decane]: inhibition was half-maximal at 10 nM (IC50).
